Data from PubChem BioAssay (NCI).
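Each compound was tested at five concentrations against cells in 96-well plates for 48 hours. GI50: concentration for 50% inhibition of growth. TGI denotes the concentration required for complete inhibition of growth.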

test system: CCRF-CEM leukemia; test: NCI-60 cell line screen, 48 h

SMILES	GI50 [µM]	TGI [µM]
COc1cc(/C=C/[N+](=O)[O-])cc(Br)c1OC	6.65	44.5
CN(CC(N)=O)C(=O)N(CCCl)N=O		> 100
c1ccc2c3c([nH]c2c1)C1CCCN1CC3 (stereo not drawn)		> 10
CC(C)=CCC/C(C)=C/CC/C(C)=C/CC/C=C(\C)CC/C=C(\C)CCC(=O)Nc1ccn(C2OC(CO)C(O)C2(F)F)c(=O)n1 (stereo not drawn)	0.0639	0.525
COc1ccc2c(c1)OC1=C(C(=O)OC1)C2c1cc(OC)c2c(c1)OCO2 (stereo not drawn)	0.0378	> 100
CCn1c2ccccc2c2cc(/C=C(/C#N)C(N)=O)ccc21	13.2	> 100
COc1ccc(C(=O)N2c3ccccc3Sc3ccccc32)c(OC)c1	0.394	> 100
CN1CCN(CC(O)COc2c(Br)c(Br)c(Br)c3c2OC(C)(C)C3)CC1 (stereo not drawn)	3.11	16.2
CCN1C(=O)N(CC)C2C1NN=c1s/c(=C3\C(=O)N(CCc4ccccc4)c4ccccc43)c(=O)n12 (stereo not drawn)	2.58	> 100
N#CN1CC[C@H](C(=O)Nc2ncc(-c3ccncc3)s2)C1	< 0.0156	> 100
Cn1cc(-c2nonc2-c2cn(C)c3ccccc23)c2ccccc21	0.703	> 100
CN(CCCCCl)P(=O)(OCCS(=O)(=O)CC(NC(=O)CCC(N)C(=O)O)C(=O)NC(C(=O)O)c1ccccc1)OCC1OC(n2cc(F)c(=O)[nH]c2=O)CC1O (stereo not drawn)	< 0.0376	33.1
CCN(CCO)CC(C)Nc1ccc([N+](=O)[O-])c2sc3ccccc3c(=O)c12 (stereo not drawn)	1	7.19
COC(=O)c1nc(-c2ccccc2)oc1S(=O)(=O)n1nc(C)cc1N	2.11	10.5
CCCCCn1sc(=O)n(Cc2ccc(CNC(=O)OCc3ccc4cccc(O)c4n3)cc2)c1=O	0.489	> 100
CCCCn1c(=O)c2c(nc3n2CCCN3CCc2ccc(OCC(=O)NCCN(CC)CC)cc2)n(CCCC)c1=O	1.13	3.9

test system: EKVX NSCLC; test: NCI-60 cell line screen, 48 h

SMILES	GI50 [µM]	TGI [µM]
COc1cc(/C=C/[N+](=O)[O-])cc(Br)c1OC	3.32	14.6
CN(CC(N)=O)C(=O)N(CCCl)N=O		> 100
c1ccc2c3c([nH]c2c1)C1CCCN1CC3 (stereo not drawn)		> 10
CC(C)=CCC/C(C)=C/CC/C(C)=C/CC/C=C(\C)CC/C=C(\C)CCC(=O)Nc1ccn(C2OC(CO)C(O)C2(F)F)c(=O)n1 (stereo not drawn)	0.112	17
COc1ccc2c(c1)OC1=C(C(=O)OC1)C2c1cc(OC)c2c(c1)OCO2 (stereo not drawn)		> 100
CCn1c2ccccc2c2cc(/C=C(/C#N)C(N)=O)ccc21	3.57	> 48.7
COc1ccc(C(=O)N2c3ccccc3Sc3ccccc32)c(OC)c1	0.851	> 100
CN1CCN(CC(O)COc2c(Br)c(Br)c(Br)c3c2OC(C)(C)C3)CC1 (stereo not drawn)	5.21	19.7
CCN1C(=O)N(CC)C2C1NN=c1s/c(=C3\C(=O)N(CCc4ccccc4)c4ccccc43)c(=O)n12 (stereo not drawn)	0.641	> 100
N#CN1CC[C@H](C(=O)Nc2ncc(-c3ccncc3)s2)C1	0.0642	4.4
Cn1cc(-c2nonc2-c2cn(C)c3ccccc23)c2ccccc21	1.7	> 100
CN(CCCCCl)P(=O)(OCCS(=O)(=O)CC(NC(=O)CCC(N)C(=O)O)C(=O)NC(C(=O)O)c1ccccc1)OCC1OC(n2cc(F)c(=O)[nH]c2=O)CC1O (stereo not drawn)	39.2	> 100
CCN(CCO)CC(C)Nc1ccc([N+](=O)[O-])c2sc3ccccc3c(=O)c12 (stereo not drawn)	1.67	6.28
COC(=O)c1nc(-c2ccccc2)oc1S(=O)(=O)n1nc(C)cc1N	16.7	43.9
CCCCCn1sc(=O)n(Cc2ccc(CNC(=O)OCc3ccc4cccc(O)c4n3)cc2)c1=O	2.01	5.41
CCCCn1c(=O)c2c(nc3n2CCCN3CCc2ccc(OCC(=O)NCCN(CC)CC)cc2)n(CCCC)c1=O	5.2	11.7

test system: HT29 colon; test: NCI-60 cell line screen, 48 h

SMILES	GI50 [µM]	TGI [µM]
COc1cc(/C=C/[N+](=O)[O-])cc(Br)c1OC	1.81	3.57
CN(CC(N)=O)C(=O)N(CCCl)N=O		> 100
c1ccc2c3c([nH]c2c1)C1CCCN1CC3 (stereo not drawn)		> 10
CC(C)=CCC/C(C)=C/CC/C(C)=C/CC/C=C(\C)CC/C=C(\C)CCC(=O)Nc1ccn(C2OC(CO)C(O)C2(F)F)c(=O)n1 (stereo not drawn)	0.594	48.9
COc1ccc2c(c1)OC1=C(C(=O)OC1)C2c1cc(OC)c2c(c1)OCO2 (stereo not drawn)	0.0328	> 100
CCn1c2ccccc2c2cc(/C=C(/C#N)C(N)=O)ccc21	5.18	> 100
COc1ccc(C(=O)N2c3ccccc3Sc3ccccc32)c(OC)c1	0.385	> 100
CN1CCN(CC(O)COc2c(Br)c(Br)c(Br)c3c2OC(C)(C)C3)CC1 (stereo not drawn)	2.16	4.54
CCN1C(=O)N(CC)C2C1NN=c1s/c(=C3\C(=O)N(CCc4ccccc4)c4ccccc43)c(=O)n12 (stereo not drawn)	0.351	1.58
N#CN1CC[C@H](C(=O)Nc2ncc(-c3ccncc3)s2)C1	< 0.0197	1.96
Cn1cc(-c2nonc2-c2cn(C)c3ccccc23)c2ccccc21	0.519	> 100
CN(CCCCCl)P(=O)(OCCS(=O)(=O)CC(NC(=O)CCC(N)C(=O)O)C(=O)NC(C(=O)O)c1ccccc1)OCC1OC(n2cc(F)c(=O)[nH]c2=O)CC1O (stereo not drawn)	2.68	> 100
CCN(CCO)CC(C)Nc1ccc([N+](=O)[O-])c2sc3ccccc3c(=O)c12 (stereo not drawn)	1.42	3.62
COC(=O)c1nc(-c2ccccc2)oc1S(=O)(=O)n1nc(C)cc1N	16.4	36.5
CCCCCn1sc(=O)n(Cc2ccc(CNC(=O)OCc3ccc4cccc(O)c4n3)cc2)c1=O	1.89	3.35
CCCCn1c(=O)c2c(nc3n2CCCN3CCc2ccc(OCC(=O)NCCN(CC)CC)cc2)n(CCCC)c1=O	1.91	6.4

test system: K-562 leukemia; test: NCI-60 cell line screen, 48 h

SMILES	GI50 [µM]	TGI [µM]
COc1cc(/C=C/[N+](=O)[O-])cc(Br)c1OC	2.21	> 100
CN(CC(N)=O)C(=O)N(CCCl)N=O		> 100
c1ccc2c3c([nH]c2c1)C1CCCN1CC3 (stereo not drawn)		> 10
CC(C)=CCC/C(C)=C/CC/C(C)=C/CC/C=C(\C)CC/C=C(\C)CCC(=O)Nc1ccn(C2OC(CO)C(O)C2(F)F)c(=O)n1 (stereo not drawn)	0.989	24.9
COc1ccc2c(c1)OC1=C(C(=O)OC1)C2c1cc(OC)c2c(c1)OCO2 (stereo not drawn)	0.033	> 100
CCn1c2ccccc2c2cc(/C=C(/C#N)C(N)=O)ccc21	4.49	> 100
COc1ccc(C(=O)N2c3ccccc3Sc3ccccc32)c(OC)c1	0.381	> 100
CN1CCN(CC(O)COc2c(Br)c(Br)c(Br)c3c2OC(C)(C)C3)CC1 (stereo not drawn)	2.06	> 100
CCN1C(=O)N(CC)C2C1NN=c1s/c(=C3\C(=O)N(CCc4ccccc4)c4ccccc43)c(=O)n12 (stereo not drawn)	0.353	> 100
N#CN1CC[C@H](C(=O)Nc2ncc(-c3ccncc3)s2)C1	0.0471	> 100
Cn1cc(-c2nonc2-c2cn(C)c3ccccc23)c2ccccc21	0.342	> 100
CN(CCCCCl)P(=O)(OCCS(=O)(=O)CC(NC(=O)CCC(N)C(=O)O)C(=O)NC(C(=O)O)c1ccccc1)OCC1OC(n2cc(F)c(=O)[nH]c2=O)CC1O (stereo not drawn)	1.81	> 100
CCN(CCO)CC(C)Nc1ccc([N+](=O)[O-])c2sc3ccccc3c(=O)c12 (stereo not drawn)	1.44	6.71
COC(=O)c1nc(-c2ccccc2)oc1S(=O)(=O)n1nc(C)cc1N	2.13	6.98
CCCCCn1sc(=O)n(Cc2ccc(CNC(=O)OCc3ccc4cccc(O)c4n3)cc2)c1=O	0.846	15.7
CCCCn1c(=O)c2c(nc3n2CCCN3CCc2ccc(OCC(=O)NCCN(CC)CC)cc2)n(CCCC)c1=O	1.31	4.39

test system: NCI-H226 lung; test: NCI-60 cell line screen, 48 h

SMILES	GI50 [µM]	TGI [µM]
COc1cc(/C=C/[N+](=O)[O-])cc(Br)c1OC	16.7	52.8
CN(CC(N)=O)C(=O)N(CCCl)N=O		> 100
c1ccc2c3c([nH]c2c1)C1CCCN1CC3 (stereo not drawn)		> 10
CC(C)=CCC/C(C)=C/CC/C(C)=C/CC/C=C(\C)CC/C=C(\C)CCC(=O)Nc1ccn(C2OC(CO)C(O)C2(F)F)c(=O)n1 (stereo not drawn)	2.5	20.4
COc1ccc2c(c1)OC1=C(C(=O)OC1)C2c1cc(OC)c2c(c1)OCO2 (stereo not drawn)	0.0489	
CCn1c2ccccc2c2cc(/C=C(/C#N)C(N)=O)ccc21	0.209	1.13
COc1ccc(C(=O)N2c3ccccc3Sc3ccccc32)c(OC)c1	0.843	> 100
CN1CCN(CC(O)COc2c(Br)c(Br)c(Br)c3c2OC(C)(C)C3)CC1 (stereo not drawn)	24.2	61.4
CCN1C(=O)N(CC)C2C1NN=c1s/c(=C3\C(=O)N(CCc4ccccc4)c4ccccc43)c(=O)n12 (stereo not drawn)	0.811	3.78
N#CN1CC[C@H](C(=O)Nc2ncc(-c3ccncc3)s2)C1	0.151	1.5
Cn1cc(-c2nonc2-c2cn(C)c3ccccc23)c2ccccc21	3.25	> 100
CN(CCCCCl)P(=O)(OCCS(=O)(=O)CC(NC(=O)CCC(N)C(=O)O)C(=O)NC(C(=O)O)c1ccccc1)OCC1OC(n2cc(F)c(=O)[nH]c2=O)CC1O (stereo not drawn)	0.628	> 100
CCN(CCO)CC(C)Nc1ccc([N+](=O)[O-])c2sc3ccccc3c(=O)c12 (stereo not drawn)	1.37	7.15
COC(=O)c1nc(-c2ccccc2)oc1S(=O)(=O)n1nc(C)cc1N	16.5	41.1
CCCCCn1sc(=O)n(Cc2ccc(CNC(=O)OCc3ccc4cccc(O)c4n3)cc2)c1=O	1.47	3.31
CCCCn1c(=O)c2c(nc3n2CCCN3CCc2ccc(OCC(=O)NCCN(CC)CC)cc2)n(CCCC)c1=O	7.13	16.9
